In ChEMBL document CHEMBL5126592, “Design, synthesis and activity against drug-resistant bacteria evaluation of C-20, C-23 modified 5-O-mycaminosyltylonolide derivatives” (Eur J Med Chem, 2022):
≈ marks a conversion by molar mass, not a printed value. Calls of active or inactive are those of the source. No cut-off for these calls is given here.

Experiments:
Escherichia coli [1] = assay: Antibacterial activity against Escherichia coli ATCC 25922 incubated for 16 to 20 hrs using 10^6 CFU/ml bacterial inoculum by broth microdilution method; assay type: functional; details: time 16-20 hrs
[2] = Genotoxicity in Salmonella typhimurium TA98 assessed as number of revertants at 1x10^-3 mg/plate incubated for 72 hrs in absence of liver S9 fraction by Ames test (reference value: 57.33 +/- 3.06); assay type: toxicity; details: salmonella enterica subsp. enterica serovar typhimurium, s9, 72 h
[3] = Genotoxicity in Salmonella typhimurium TA1537 assessed as number of revertants at 1.6x10^-6 mg/plate incubated for 72 hrs in presence of liver S9 fraction by Ames test (reference value: 20 +/- 5); assay type: toxicity, subcellular; details: salmonella enterica subsp. enterica serovar typhimurium, s9, 72 h
[4] = Genotoxicity in Salmonella typhimurium TA1537 assessed as number of revertants at 2x10^-4 mg/plate incubated for 72 hrs in absence of liver S9 fraction by Ames test (reference value: 22.67 +/- 2.52); assay type: toxicity; details: salmonella enterica subsp. enterica serovar typhimurium, s9, 72 h
Enterococcus faecium = assay: Antibacterial activity against Enterococcus faecium incubated for 16 to 20 hrs by broth microdilution method; assay type: functional; details: time 16-20 hrs
[5] = Genotoxicity in Salmonella typhimurium TA1537 assessed as number of revertants at 1.6x10^-6 mg/plate incubated for 72 hrs in absence of liver S9 fraction by Ames test (reference value: 22.67 +/- 2.52); assay type: toxicity; details: salmonella enterica subsp. enterica serovar typhimurium, s9, 72 h
[6] = Toxicity in Kunming mouse infected with Staphylococcus aureus ATCC 25923 assessed as reduction in neutrophils at 20 to 40 mg/kg, iv measured after 1 hr by hematoxylin and eosin staining based microscopic analysis; assay type: organism-based; details: in vivo, dose 20-40 mg/kg
Staphylococcus aureus [7] = assay: Antibacterial activity against Staphylococcus aureus ATCC 29213 at pH 8.4 incubated for 16 to 20 hrs by broth microdilution method; assay type: functional; details: time 16-20 hrs
[8] = Genotoxicity in Salmonella typhimurium TA100 assessed as number of revertants at 1x10^-3 mg/plate incubated for 72 hrs in absence of liver S9 fraction by Ames test (reference value: 221.67 +/- 15.57); assay type: toxicity; details: salmonella enterica subsp. enterica serovar typhimurium, s9, 72 h
[9] = Genotoxicity in Salmonella typhimurium TA1535 assessed as number of revertants at 2x10^-4 mg/plate incubated for 72 hrs in presence of liver S9 fraction by Ames test (reference value: 15.33 +/- 2.52); assay type: toxicity, subcellular; details: salmonella enterica subsp. enterica serovar typhimurium, s9, 72 h
[10] = Genotoxicity in Salmonella typhimurium TA102 assessed as number of revertants at 8x10^-6 mg/plate incubated for 72 hrs in presence of liver S9 fraction by Ames test (reference value: 465.33 +/- 18.04); assay type: toxicity, subcellular; details: salmonella enterica subsp. enterica serovar typhimurium, s9, 72 h
[11] = Genotoxicity in Salmonella typhimurium TA1535 assessed as number of revertants at 1.6x10^-6 mg/plate incubated for 72 hrs in absence of liver S9 fraction by Ames test (reference value: 14.33 +/- 0.58); assay type: toxicity; details: salmonella enterica subsp. enterica serovar typhimurium, s9, 72 h
[12] = Genotoxicity in Salmonella typhimurium TA102 assessed as number of revertants at 2x10^-4 mg/plate incubated for 72 hrs in absence of liver S9 fraction by Ames test (reference value: 386.67 +/- 23.44); assay type: toxicity; details: salmonella enterica subsp. enterica serovar typhimurium, s9, 72 h
[13] = Genotoxicity in Salmonella typhimurium TA1537 assessed as number of revertants at 8x10^-6 mg/plate incubated for 72 hrs in absence of liver S9 fraction by Ames test (reference value: 22.67 +/- 2.52); assay type: toxicity; details: salmonella enterica subsp. enterica serovar typhimurium, s9, 72 h
Cronobacter sakazakii = assay: Antibacterial activity against Cronobacter sakazakii ATCC 29544 incubated for 16 to 20 hrs by broth microdilution method; assay type: functional; details: time 16-20 hrs
[14] = Genotoxicity in Salmonella typhimurium TA1535 assessed as number of revertants at 1.6x10^-6 mg/plate incubated for 72 hrs in presence of liver S9 fraction by Ames test (reference value: 15.33 +/- 2.52); assay type: toxicity, subcellular; details: salmonella enterica subsp. enterica serovar typhimurium, s9, 72 h
Escherichia coli [15] = assay: Antibacterial activity against Escherichia coli ATCC 25922 at pH 6.8 incubated for 16 to 20 hrs by broth microdilution method; assay type: functional; details: time 16-20 hrs
Staphylococcus aureus [16] = assay: Antibacterial activity against Staphylococcus aureus ATCC 29213 at pH 8.6 incubated for 16 to 20 hrs in presence of 25% foetal bovine serum by broth microdilution method; assay type: functional; details: time 16-20 hrs
Staphylococcus aureus [17] = assay: Antibacterial activity against Staphylococcus aureus ATCC 25923 infected in kunming mouse assessed as reduction in lung congestion at 20 to 40 mg/kg, iv measured after 1 hr by hematoxylin and eosin staining based microscopic analysis; assay type: functional, organism-based; details: dose 20-40 mg/kg
Staphylococcus aureus [18] = assay: Bactericidal activity against Staphylococcus aureus ATCC 29213 incubated for 20 to 24 hrs by CLSI based analysis; assay type: functional; details: time 20-24 hrs
Escherichia coli [19] = assay: Antibacterial activity against Escherichia coli ATCC 25922 at pH 7.8 incubated for 16 to 20 hrs by broth microdilution method; assay type: functional; details: time 16-20 hrs
[20] = Genotoxicity in Salmonella typhimurium TA100 assessed as number of revertants at 8x10^-6 mg/plate incubated for 72 hrs in absence of liver S9 fraction by Ames test (reference value: 221.67 +/- 15.57); assay type: toxicity; details: salmonella enterica subsp. enterica serovar typhimurium, s9, 72 h
Escherichia coli [21] = assay: Antibacterial activity against Escherichia coli ATCC 25922 incubated for 16 to 20 hrs using 10^4 CFU/ml bacterial inoculum by broth microdilution method; assay type: functional; details: time 16-20 hrs
Escherichia coli [22] = assay: Bactericidal activity against Escherichia coli ATCC 25922 incubated for 20 to 24 hrs by CLSI based analysis; assay type: functional; details: time 20-24 hrs
[23] = Genotoxicity in Salmonella typhimurium TA98 assessed as number of revertants at 4x10^-5 mg/plate incubated for 72 hrs in absence of liver S9 fraction by Ames test (reference value: 57.33 +/- 3.06); assay type: toxicity; details: salmonella enterica subsp. enterica serovar typhimurium, s9, 72 h
Staphylococcus aureus [24] = assay: Antibacterial activity against Staphylococcus aureus ATCC 29213 at pH 8.2 incubated for 16 to 20 hrs by broth microdilution method; assay type: functional; details: time 16-20 hrs
Escherichia coli [25] = assay: Antibacterial activity against Escherichia coli ATCC 25922 at pH 7.4 incubated for 16 to 20 hrs by broth microdilution method; assay type: functional; details: time 16-20 hrs
[26] = Genotoxicity in Salmonella typhimurium TA1535 assessed as number of revertants at 1x10^-3 mg/plate incubated for 72 hrs in presence of liver S9 fraction by Ames test (reference value: 15.33 +/- 2.52); assay type: toxicity, subcellular; details: salmonella enterica subsp. enterica serovar typhimurium, s9, 72 h
[27] = Genotoxicity in Salmonella typhimurium TA100 assessed as number of revertants at 1.6x10^-6 mg/plate incubated for 72 hrs in presence of liver S9 fraction by Ames test (reference value: 204.33 +/- 8.14); assay type: toxicity, subcellular; details: salmonella enterica subsp. enterica serovar typhimurium, s9, 72 h
Staphylococcus aureus [28] = assay: Antibacterial activity against Staphylococcus aureus ATCC 29213 at pH 6.6 incubated for 16 to 20 hrs by broth microdilution method; assay type: functional; details: time 16-20 hrs
Staphylococcus aureus [29] = assay: Antibacterial activity against Staphylococcus aureus ATCC 29213 at pH 8.6 incubated for 16 to 20 hrs by broth microdilution method; assay type: functional; details: time 16-20 hrs
Escherichia coli [30] = assay: Ratio of MBC to MIC for Escherichia coli ATCC 25922; assay type: functional
Escherichia coli [31] = assay: Antibacterial activity against Escherichia coli ATCC 25922 incubated for 16 to 20 hrs in absence of foetal bovine serum by broth microdilution method; assay type: functional; details: time 16-20 hrs
[32] = Genotoxicity in Salmonella typhimurium TA100 assessed as number of revertants at 4x10^-5 mg/plate incubated for 72 hrs in absence of liver S9 fraction by Ames test (reference value: 221.67 +/- 15.57); assay type: toxicity; details: salmonella enterica subsp. enterica serovar typhimurium, s9, 72 h

Q: Which MIC (Escherichia coli [1]) does the source give for `CC[C@H]1OC(=O)C[C@@H](O)[C@H](C)[C@@H](O[C@@H]2O[C@H](C)[C@@H](O)[C@H](N(C)C)[C@H]2O)[C@@H](CCN(C)Cc2cn(-c3cnc4ccccc4c3)nn2)C[C@@H](C)C(=O)/C=C/C(C)=C/[C@@H]1CN1CCCCCC1` here?
A: 0.5 µg/mL (≈ 0.554 µM)

Q: What about the Activity [2] of the same compound?
A: 60.33

Q: And the Activity [3]?
A: 15

Q: And the Activity [4]?
A: 15.67

Q: And the MIC (Enterococcus faecium)?
A: 1 µg/mL (≈ 1.11 µM)

Q: And the Activity [5]?
A: 14.33

Q: And the Activity [6]?
A: Non-Toxic

Q: What about the MIC (Staphylococcus aureus [7]) of the same compound?
A: ≤ 0.0625 µg/mL

Q: What about the Activity [8] of the same compound?
A: 231

Q: What about the Activity [9] of the same compound?
A: 12.67

Q: And the Activity [10]?
A: 466.67

Q: What about the Activity [11] of the same compound?
A: 6.67

Q: And the Activity [12]?
A: 449.33

Q: And the Activity [13]?
A: 21.33

Q: And the MIC (Cronobacter sakazakii)?
A: 4 µg/mL (≈ 4.43 µM)

Q: And the Activity [14]?
A: 16.33

Q: And the MIC (Escherichia coli [15])?
A: 8 µg/mL (≈ 8.87 µM)

Q: And the MIC (Staphylococcus aureus [16])?
A: 1 µg/mL

Q: What about the Activity (Staphylococcus aureus [17]) of the same compound?
A: Active

Q: And the MBC (Staphylococcus aureus [18])?
A: 0.25 µg/mL (≈ 0.277 µM)

Q: What about the MIC (Escherichia coli [19]) of the same compound?
A: 0.5 µg/mL (≈ 0.554 µM)

Q: What about the Activity [20] of the same compound?
A: 226

Q: What about the MIC (Escherichia coli [21]) of the same compound?
A: 0.25 µg/mL (≈ 0.277 µM)

Q: What about the MBC (Escherichia coli [22]) of the same compound?
A: 2 µg/mL (≈ 2.22 µM)

Q: What about the Activity [23] of the same compound?
A: 62.33

Q: And the MIC (Staphylococcus aureus [24])?
A: ≤ 0.0625 µg/mL

Q: What about the MIC (Escherichia coli [25]) of the same compound?
A: 1 µg/mL (≈ 1.11 µM)

Q: And the Activity [26]?
A: 11

Q: What about the Activity [27] of the same compound?
A: 162.67

Q: And the MIC (Staphylococcus aureus [28])?
A: 32 µg/mL (≈ 35.5 µM)

Q: And the MIC (Staphylococcus aureus [29])?
A: ≤ 0.0625 µg/mL

Q: What about the Ratio (Escherichia coli [30]) of the same compound?
A: 2

Q: What about the MIC (Escherichia coli [31]) of the same compound?
A: 1 µg/mL (≈ 1.11 µM)

Q: What about the Activity [32] of the same compound?
A: 201.67
